Columns and labels:
human GST-DYRK1A = biological target: T1, human GST-DYRK1A (Homo sapiens, UniProt Q13627); assay: GST-DYRK1A enzyme inhibition, ADP-Glo kinase assay; type: biochemical; conditions: ATP 10 μM, GST-DYRK1A full length, read-out: DYRK1 IC50
T1 construct: purified human GST-DYRK1A (full length, Thermo Scientifics) enzyme; purchased Thermo Scientifics
Method: (§1) To evaluate an inhibitory activity of the compound according to the present invention against LRRK2, LRRK2 (G2019S), DYRK1, CLK1, and TTK kinases, experiments were performed as follows.
(§2) Each of the Example compounds was reacted with a purified human GST-DYRK1A (full length, Thermo Scientifics) enzyme to evaluate an ability to inhibit an enzyme using a method as described below. A composition of 40 mM Tris-HCl (pH 7.4), 20 mM MgCl2, 0.5 mg/mL BSA, and 50 μM DTT was used as a reaction buffer, and all reactions of test substances were performed in the reaction buffer. In the test, purified ATP (10 μM) and a specific substrate solution were reacted with a human GST-DYRK1A (full length, 10 ng) enzyme at 25° C. for an hour, and the enzyme activities were then determined using an in vitro ADP-Glo™ kinase assay (Promega). An enzyme-activity reaction solution, an ADP-Glo reaction solution, and an enzyme-ability detection solution were reacted at a ratio of 2:2:1 to measure a degree of inhibition of the enzyme activity with luminescence. The degree of inhibition of the enzyme activity according to the treatment concentration of each of the compounds was calculated based on the fluorescence of the enzyme activity of the solvent control which was not treated with the compound. In this case, the concentration of each of the compounds inhibiting 50% of the enzyme activity was determined to be an IC50 (nM) value, and the IC50 (nM) value of each of the compounds was determined from 3 sets of data, and calculated using Prism (Version 5.01; GraphPad) software.

human GST-CLK1 = biological target: T2, human GST-CLK1 (Homo sapiens, UniProt P49759); assay: GST-CLK1 enzyme inhibition, ADP-Glo kinase assay; type: biochemical; conditions: ATP 10 μM, GST-CLK1 129-end
T2 construct: purified human GST-CLK1 (129-end, SignalChem) enzyme; purchased SignalChem
Method: as §1
as §2, with “GST-CLK1 (129-end, SignalChem)” for “GST-DYRK1A (full length, Thermo Scientifics)”, “GST-CLK1 (129-end, 3” for “GST-DYRK1A (full length, 10”, “value. The” for “value, and the”

T2 sequence (P49759 129-484 limits assumed): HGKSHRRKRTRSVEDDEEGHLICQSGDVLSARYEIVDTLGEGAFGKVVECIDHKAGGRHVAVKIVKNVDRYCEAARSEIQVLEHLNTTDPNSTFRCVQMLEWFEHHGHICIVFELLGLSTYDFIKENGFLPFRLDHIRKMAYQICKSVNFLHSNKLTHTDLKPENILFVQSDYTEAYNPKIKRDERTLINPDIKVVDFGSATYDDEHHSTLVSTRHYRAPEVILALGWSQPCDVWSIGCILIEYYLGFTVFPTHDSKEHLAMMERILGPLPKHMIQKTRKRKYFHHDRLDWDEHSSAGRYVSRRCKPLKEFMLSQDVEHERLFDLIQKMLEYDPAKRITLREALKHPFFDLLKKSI

SMILES	IC50 (human GST-DYRK1A)	IC50 (human GST-CLK1)
CCCNc1nc(Nc2ccc(P3(=O)CCN(C4CC4)CC3)cc2OC)nc2[nH]cc(C#N)c12 [Example 282, 2-((4-(1-cyclopropyl-4-oxido-1,4-azaphosphinan-4-yl)-2-methoxyphenyl)amino)-4-(propylamino)-7H-pyrrolo[2,3-d]pyrimidine-5-carbonitrile]	301 to 1000 nM	101 to 300 nM
CCCCNc1nc(Nc2ccc(C(=O)N3CC(CO)(CO)C3)c3c2OCCO3)nc2[nH]cc(C#N)c12 [Example 341, 2-((8-(3,3-bis (hydroxymethyl)azetidine-1-carbonyl)-2,3-dihydrobenzo [b][1,4]dioxin-5-yl)amino)-4-(butylamino)-7H-pyrrolo[2,3-d]pyrimidine-5-carbonitrile]	301 to 1000 nM	< 100 nM
N#Cc1c[nH]c2nc(Nc3ccc(C(=O)N4CCOCC4)c4c3OCC4)nc(NC3CCC3)c12 [Example 360, 4-(cyclo-butylamino)-2-((4-(morpholine-4-carbonyl)-2,3-dihydrobenzo-furan-7-yl)amino)-7H-pyrrolo[2,3-d]pyrimidine-5-carbonitrile]	101 to 300 nM	< 100 nM
N#Cc1c[nH]c2nc(Nc3ccc(C(=O)N4CC(CO)(CO)C4)c4c3OCCO4)nc(N[C@H]3CCOC3)c12 [Example 336, (S)-2-((8-(3,3-bis (hydroxymethyl)azetidine-1-carbonyl)-2,3-dihydrobenzo[b] [1,4]dioxin-5-yl)amino)-4-((tetrahydrofuran-3-yl)amino)-7H-pyrrolo[2,3-d]pyrimidine-5-carbonitrile]	301 to 1000 nM	< 100 nM
COc1cc(P2(=O)CCN(C3CC3)CC2)ccc1Nc1nc(NCC2CCCC2)c2c(C#N)c[nH]c2n1 [Example 308, 4-((cyclo-pentylmeth-yl)amino)-2-((4-(1-cyclopropyl-4-oxido-1,4-azaphosphinan-4-yl)-2-methoxyphenyl)a-mino)-7H-pyrrolo[2,3-d]pyrimidine-5-carbonitrile]	301 to 1000 nM	301 to 1000 nM
COc1cc(P2(=O)CCN(C3CC3)CC2)ccc1Nc1nc(NCC(C)C)c2c(C#N)c[nH]c2n1 [Example 290, 2-((4-(1-cyclopropyl-4-oxido-1,4-azaphosphinan-4-yl)-2-methoxyphenyl)a-mino)-4-(isobutylamino)-7H-pyrrolo[2,3-d]pyrimidine-5-carbonitrile]	301 to 1000 nM	301 to 1000 nM
COCCNc1nc(Nc2ccc(P3(=O)CCN(C4COC4)CC3)cc2OC)nc2[nH]cc(C#N)c12 [Example 312, 2-((2-methoxy-4-(1-(oxetan-3-yl)-4-oxido-1,4-azaphosphinan-4-yl)phenyl)amino)-4-((2-methoxyethyl)amino)-7H-pyrrolo[2,3-d]pyrimidine-5-carbonitrile]	101 to 300 nM	< 100 nM
CC[C@H](C)Nc1nc(Nc2ccc(P3(=O)CCN(C4CC4)CC3)cc2OC)nc2[nH]cc(C#N)c12 [Example 296, (S)-4-(sec-butylamino)-2-((4-(1-cyclopropyl-4-oxido-1,4-azaphosphinan-4-yl)-2-methoxyphenyl)a-mino)-7H-pyrrolo[2,3-d]pyrimidine-5-carbonitrile]	301 to 1000 nM	301 to 1000 nM
N#Cc1c[nH]c2nc(Nc3ccc(C(=O)N4CC(CO)(CO)C4)c4c3OCCO4)nc(NCC3CCC3)c12 [Example 339, 2-((8-(3,3-bis (hydroxymethyl)azetidine-1-carbonyl)-2,3-dihydrobenzo [b][1,4]dioxin-5-yl)amino)-4-((cyclobutyl-methyl)amino)-7H-pyrrolo[2,3-d]pyrimidine-5-carbonitrile]	301 to 1000 nM	< 100 nM
O=C(c1ccc(Nc2nc(NC3CCCCC3)c3c(C(F)(F)F)c[nH]c3n2)c2c1OCCO2)N1CCC(N2CCOCC2)CC1 [Example 204, (8-((4-(cyclohexylamino)-5-(trifluoromethyl)-7H-pyrrolo[2,3-d]pyrimidin-2-yl)amino)-2,3-dihydrobenzo[b][1,4]dioxin-5-yl)(4-morpholinopiperidin-1-yl)methanone]	101 to 300 nM	301 to 1000 nM
COc1cc(P2(=O)CCN(C3COC3)CC2)ccc1Nc1nc(NCC(C)C)c2c(C#N)c[nH]c2n1 [Example 291, 4-(isobutyl-amino)-2-((2-methoxy-4-(1-(oxetan-3-yl)-4-oxido-1,4-azaphosphinan-4-yl)phenyl)amino)-7H-pyrrolo[2,3-d]pyrimidine-5-carbonitrile]	301 to 1000 nM	101 to 300 nM
COc1cc(P2(=O)CCN(C3COC3)CC2)ccc1Nc1nc(NC2CCCC2)c2cc[nH]c2n1 [Example 239, 4-(4-((4-(cyclopentylamino)-7H-pyrrolo[2,3-d]pyrimidin-2-yl)amino)-3-methoxyphenyl)-1-(oxetan-3-yl)-1,4-azaphosphinane 4-oxide]	301 to 1000 nM	301 to 1000 nM
CC[C@H](C)Nc1nc(Nc2ccc(C(=O)N3CC(CO)(CO)C3)c3c2OCCO3)nc2[nH]cc(C#N)c12 [Example 331, (S)-2-((8-(3,3-bis(hydroxy-methyl)azetidine-1-carbonyl)-2,3-dihydrobenzo[b] [1,4]dioxin-5-yl)amino)-4-(sec-butylamino)-7H-pyrrolo[2,3-d]pyrimidine-5-carbonitrile]	301 to 1000 nM	< 100 nM
CCNc1nc(Nc2ccc(C(=O)N3CCOCC3)c3c2OCC3)nc2[nH]cc(C(F)(F)F)c12 [Example 437, (7-((4-(ethylamino)-5-(trifluoromethyl)-7H-pyrrolo[2,3-d]pyrimidin-2-yl)amino)-2,3-dihydrobenzo-furan-4-yl) (morpholino) methanone]	< 100 nM	< 100 nM
O=C(c1ccc(Nc2nc(NCC3CC3)c3c(C(F)(F)F)c[nH]c3n2)c2c1OCCO2)N1CCOCC1 [Example 201, (8-((4-((cyclopropylmethyl)amino)-5-(trifluoromethyl)-7H-pyrrolo[2,3-d]pyrimidin-2-yl)amino)-2,3-dihydrobenzo[b][1,4]dioxin-5-yl)(morpholino)methanone]	301 to 1000 nM	< 100 nM
CC(C)CNc1nc(Nc2ccc(C(=O)N3CCC(N4CCOCC4)CC3)c3c2OCC3)nc2[nH]cc(C#N)c12 [Example 351, 4-(isobutyl-amino)-2-((4-(4-morpholino-piperidine-1-carbonyl)-2,3-dihydro-benzofuran-7-yl)amino)-7H-pyrrolo[2,3-d]pyrimidine-5-carbonitrile]	301 to 1000 nM	< 100 nM
CCCNc1nc(Nc2ccc(C(=O)N3CCN(C4COC4)CC3)c3c2OCCO3)nc2[nH]cc(C#N)c12 [Example 284, 2-((8-(4-(oxetan-3-yl)piperazine-1-carbonyl)-2,3-dihydrobenzo[b] [1,4]dioxin-5-yl)amino)-4-(propylamino)-7H-pyrrolo[2,3-d]pyrimidine-5-carbonitrile]	301 to 1000 nM	< 100 nM
N#Cc1c[nH]c2nc(Nc3ccc(C(=O)N4CC(CO)(CO)C4)c4c3OCCO4)nc(NC3CCOCC3)c12 [Example 337, 2-((8-(3,3-bis (hydroxymethyl)azetidine-1-carbonyl)-2,3-dihydrobenzo[b] [1,4]dioxin-5-yl)amino)-4-((tetrahydro-2H-pyran-4-yl)amino)-7H-pyrrolo[2,3-d]pyrimidine-5-carbonitrile]	301 to 1000 nM	< 100 nM
COc1cc(P2(=O)CCN(C3COC3)CC2)ccc1Nc1nc(NC2CCOCC2)c2c(C#N)c[nH]c2n1 [Example 303, 2-((2-methoxy-4-(1-(oxetan-3-yl)-4-oxido-1,4-azaphosphinan-4-yl)phenyl)amino)-4-((tetrahydro-2H-pyran-4-yl)amino)-7H-pyrrolo[2,3-d]pyrimidine-5-carbonitrile]	301 to 1000 nM	301 to 1000 nM
CC[C@H](C)Nc1nc(Nc2ccc(S(C)(=O)=O)cc2OC)nc2[nH]cc(C#N)c12 [Example 102, (S)-4-(sec-butylamino)-2-((2-methoxy-4-(methylsulfonyl)phenyl)amino)-7H-pyrrolo[2,3-d]pyrimidine-5-carbonitrile]	301 to 1000 nM	301 to 1000 nM

Reference: patent US20230066011A1, “PYRROLOPYRIMIDINE DERIVATIVE, AND PHARMACEUTICAL COMPOSITION FOR PREVENTING OR TREATING PROTEIN KINASE-RELATED DISEASE COMPRISING SAME AS ACTIVE INGREDIENT” (VORONOI CO., LTD., priority 2019, published 2023)
